# Source: patent US8624040B2, “Substituted hydroxamic acids and uses thereof” (Millennium Pharmaceuticals, Inc., priority 2009, dated 2014)
# Target: T1, purified human HDAC6 (Homo sapiens, UniProt Q9UBN7)
# T1 construct: purchased BPS Bioscience 5006
# T1 sequence (Q9UBN7 1-1215): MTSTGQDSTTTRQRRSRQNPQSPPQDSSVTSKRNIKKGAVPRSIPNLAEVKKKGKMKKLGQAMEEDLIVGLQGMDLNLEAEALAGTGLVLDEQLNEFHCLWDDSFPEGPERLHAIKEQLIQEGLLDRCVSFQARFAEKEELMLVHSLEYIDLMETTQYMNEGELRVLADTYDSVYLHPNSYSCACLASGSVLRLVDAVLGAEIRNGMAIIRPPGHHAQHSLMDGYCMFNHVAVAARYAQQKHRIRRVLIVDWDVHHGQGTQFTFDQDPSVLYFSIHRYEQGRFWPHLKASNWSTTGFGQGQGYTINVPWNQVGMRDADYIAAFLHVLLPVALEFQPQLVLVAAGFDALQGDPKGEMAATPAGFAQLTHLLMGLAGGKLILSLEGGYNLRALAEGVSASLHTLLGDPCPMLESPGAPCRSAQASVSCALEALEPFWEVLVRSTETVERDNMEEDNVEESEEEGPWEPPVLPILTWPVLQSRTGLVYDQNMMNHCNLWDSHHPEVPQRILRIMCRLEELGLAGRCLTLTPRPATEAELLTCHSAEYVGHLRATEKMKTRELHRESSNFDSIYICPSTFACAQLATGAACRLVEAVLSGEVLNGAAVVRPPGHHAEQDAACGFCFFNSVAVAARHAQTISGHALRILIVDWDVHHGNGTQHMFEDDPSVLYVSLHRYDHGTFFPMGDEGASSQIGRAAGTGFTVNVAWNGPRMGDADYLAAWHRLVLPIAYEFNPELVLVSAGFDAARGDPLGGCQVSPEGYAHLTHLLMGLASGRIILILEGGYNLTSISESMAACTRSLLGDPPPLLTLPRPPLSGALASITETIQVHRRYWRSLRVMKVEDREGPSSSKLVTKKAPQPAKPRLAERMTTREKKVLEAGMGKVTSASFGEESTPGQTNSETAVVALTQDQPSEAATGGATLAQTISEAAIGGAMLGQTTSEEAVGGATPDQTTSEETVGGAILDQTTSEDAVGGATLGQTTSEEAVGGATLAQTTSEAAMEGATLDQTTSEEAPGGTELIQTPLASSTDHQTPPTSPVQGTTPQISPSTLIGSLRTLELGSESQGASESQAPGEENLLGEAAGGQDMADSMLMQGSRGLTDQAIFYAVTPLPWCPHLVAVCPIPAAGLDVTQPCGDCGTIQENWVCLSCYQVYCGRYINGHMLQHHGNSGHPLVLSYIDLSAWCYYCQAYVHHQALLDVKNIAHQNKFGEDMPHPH
# Experiment: HDAC6 Enzyme Assay
# Assay type: biochemical
# Conditions: enzyme inhibition, substrate Ac-Arg-Gly-Lys(Ac)-AMC, 1 hour at 30° C.
# Description: To measure the inhibition of HDAC6 activity, purified human HDAC6 (BPS Bioscience; Cat. No. 5006) is incubated with substrate Ac-Arg-Gly-Lys(Ac)-AMC peptide (Bachem Biosciences; Cat. No. I-1925) for 1 hour at 30° C. in the presence of test compounds or vehicle DMSO control. The reaction is stopped with the HDAC inhibitor trichostatin A (Sigma; Cat. No. T8552) and the amount of Arg-Gly-Lys-AMC generated is quantitated by digestion with trypsin (Sigma; Cat. No. T1426) and subsequent measurement of the amount of AMC released using a fluorescent plate reader (Pherastar; BMG Technologies) set at Ex 340 nm and Em 460 nm. Concentration response curves are generated by calculating the fluorescence increase in test compound-treated samples relative to DMSO-treated controls, and enzyme inhibition (IC50) values are determined from those curves.
row,IC50 [µM],SMILES
1,< 0.05,"CC(C)(C)C(=O)N1CCc2cc(C(=O)NO)sc2C1 [Compound 1, 6-(2,2-dimethylpropanoyl)-N-hydroxy-4,5,6,7-tetrahydrothieno[2,3-c]pyridine-2-carboxamide]"
2,< 0.05,"O=C(NO)c1cc2c(s1)CN(C(=O)C1CCCCC1)CC2 [Compound 2, 6-(cyclohexylcarbonyl)-N-hydroxy-4,5,6,7-tetrahydrothieno[2,3-c]pyridine-2-carboxamide]"
3,< 0.05,"CC1(C(=O)N2CCc3cc(C(=O)NO)sc3C2)CCCCC1 [Compound 3, N-hydroxy-6-[(1-methylcyclohexyl)carbonyl]-4,5,6,7-tetrahydrothieno[2,3-c]pyridine-2-carboxamide]"
4,< 0.05,"CC(C)(C(=O)N1CCc2cc(C(=O)NO)sc2C1)c1ccc(Cl)cc1 [Compound 4, 6-[2-(4-chlorophenyl)-2-methylpropanoyl]-N-hydroxy-4,5,6,7-tetrahydrothieno[2,3-c]pyridine-2-carboxamide]"
5,< 0.05,"O=C(NO)c1cc2c(s1)CN(C(=O)c1ccsc1)CC2 [Compound 5, N-hydroxy-6-(3-thienylcarbonyl)-4,5,6,7-tetrahydrothieno[2,3-c]pyridine-2-carboxamide]"
6,< 0.05,"CCC(Oc1ccccc1)C(=O)N1CCc2cc(C(=O)NO)sc2C1 (centres unmarked) [Compound 6, N-hydroxy-6-(2-phenoxybutanoyl)-4,5,6,7-tetrahydrothieno[2,3-c]pyridine-2-carboxamide]"
7,< 0.05,"COc1c(C(=O)N2CCc3cc(C(=O)NO)sc3C2)csc1Cl [Compound 7, 6-[(5-chloro-4-methoxy-3-thienyl)carbonyl]-N-hydroxy-4,5,6,7-tetrahydrothieno[2,3-c]pyridine-2-carboxamide]"
8,< 0.05,"O=C(NO)c1cc2c(s1)CN(C(=O)c1[nH]nc3c1CCCC3)CC2 [Compound 8, N-hydroxy-6-(4,5,6,7-tetrahydro-2H-indazol-3-ylcarbonyl)-4,5,6,7-tetrahydrothieno[2,3-c]pyridine-2-carboxamide]"
9,0.05 to 0.1,"CCC(C(=O)N1CCc2cc(C(=O)NO)sc2C1)(c1ccccc1)c1ccccc1 [Compound 9, 6-(2,2-diphenylbutanoyl)-N-hydroxy-4,5,6,7-tetrahydrothieno[2,3-c]pyridine-2-carboxamide]"
10,0.05 to 0.1,"O=C(NO)c1cc2c(s1)CN(C(=O)C(C1CCCCC1)C1CCCCC1)CC2 [Compound 10, 6-(dicyclohexylacetyl)-N-hydroxy-4,5,6,7-tetrahydrothieno[2,3-c]pyridine-2-carboxamide]"
11,< 0.05,"Cc1nc(C(F)(F)F)c(C(=O)N2CCc3cc(C(=O)NO)sc3C2)s1 [Compound 11, N-hydroxy-6-{[2-methyl-4-(trifluoromethyl)-1,3-thiazol-5-yl]carbonyl}-4,5,6,7-tetrahydrothieno[2,3-c]pyridine-2-carboxamide]"
12,> 1,"Cc1ccc(OCC(=O)N2CCc3cc(C(=O)NO)sc3C2)c(C)c1 [Compound 12, 6-[(2,4-dimethylphenoxy)acetyl]-N-hydroxy-4,5,6,7-tetrahydrothieno[2,3-c]pyridine-2-carboxamide]"
13,< 0.05,"O=C(NO)c1cc2c(s1)CN(C(=O)C1(c3ccc(F)cc3Cl)CCCC1)CC2 [Compound 13, 6-{[1-(2-chloro-4-fluorophenyl)cyclopentyl]carbonyl}-N-hydroxy-4,5,6,7-tetrahydrothieno[2,3-c]pyridine-2-carboxamide]"
14,< 0.05,"O=C(NO)c1cc2c(s1)CN(C(=O)C13CC4CC(CC(C4)C1)C3)CC2 [Compound 14, 6-[1-adamantylcarbonyl]-N-hydroxy-4,5,6,7-tetrahydrothieno[2,3-c]pyridine-2-carboxamide]"
15,0.05 to 0.1,"O=C(NO)c1cc2c(s1)CN(C(=O)C1CCCCN1S(=O)(=O)c1ccccc1)CC2 (centres unmarked) [Compound 15, N-hydroxy-6-{[1-(phenylsulfonyl)piperidin-2-yl]carbonyl}-4,5,6,7-tetrahydrothieno[2,3-c]pyridine-2-carboxamide]"
16,< 0.05,"Cc1oc(S(=O)(=O)N2CCCCC2)cc1C(=O)N1CCc2cc(C(=O)NO)sc2C1 [Compound 16, N-hydroxy-6-[2-methyl-5-(piperidin-1-ylsulfonyl)-3-furoyl]-4,5,6,7-tetrahydrothieno[2,3-c]pyridine-2-carboxamide]"
17,> 1,"O=C(NO)c1cc2c(s1)CN(C(=O)CC1c3ccccc3-c3ccccc31)CC2 [Compound 17, 6-(9H-fluoren-9-ylacetyl)-N-hydroxy-4,5,6,7-tetrahydrothieno[2,3-c]pyridine-2-carboxamide]"
18,< 0.05,"O=C(NO)c1cc2c(s1)CN(S(=O)(=O)CC(c1ccccc1)c1ccccc1)CC2 [Compound 18, 6-[(2,2-diphenylethyl)sulfonyl]-N-hydroxy-4,5,6,7-tetrahydrothieno[2,3-c]pyridine-2-carboxamide]"
19,< 0.05,"CCCCS(=O)(=O)N1CCc2cc(C(=O)NO)sc2C1 [Compound 19, 6-(butylsulfonyl)-N-hydroxy-4,5,6,7-tetrahydrothieno[2,3-c]pyridine-2-carboxamide]"
20,< 0.05,"Cc1noc(C)c1S(=O)(=O)N1CCc2cc(C(=O)NO)sc2C1 [Compound 20, 6-[(3,5-dimethylisoxazol-4-yl)sulfonyl]-N-hydroxy-4,5,6,7-tetrahydrothieno[2,3-c]pyridine-2-carboxamide]"
21,< 0.05,"O=C(NO)c1cc2c(s1)CN(S(=O)(=O)c1ccc(C(F)(F)F)cc1)CC2 [Compound 21, N-hydroxy-6-{[4-(trifluoromethyl)phenyl]sulfonyl}-4,5,6,7-tetrahydrothieno[2,3-c]pyridine-2-carboxamide]"
22,< 0.05,"O=C(NO)c1cc2c(s1)CN(Cc1ccc3c(c1)OCCCO3)CC2 [Compound 22, 6-(3,4-dihydro-2H-1,5-benzodioxepin-7-ylmethyl)-N-hydroxy-4,5,6,7-tetrahydrothieno[2,3-c]pyridine-2-carboxamide]"
23,< 0.05,"O=C(NO)c1cc2c(s1)CN(Cc1ccc(-n3cccn3)cc1)CC2 [Compound 23, N-hydroxy-6-[4-(1H-pyrazol-1-yl)benzyl]-4,5,6,7-tetrahydrothieno[2,3-c]pyridine-2-carboxamide]"
24,< 0.05,"Cc1nn(-c2ccccc2)nc1CN1CCc2cc(C(=O)NO)sc2C1 [Compound 24, N-hydroxy-6-[(5-methyl-2-phenyl-2H-1,2,3-triazol-4-yl)methyl]-4,5,6,7-tetrahydrothieno[2,3-c]pyridine-2-carboxamide]"
25,< 0.05,"O=C(NO)c1cc2c(s1)CN(Cc1cccc3nsnc13)CC2 [Compound 25, 6-(2,1,3-benzothiadiazol-4-ylmethyl)-N-hydroxy-4,5,6,7-tetrahydrothieno[2,3-c]pyridine-2-carboxamide]"
26,< 0.05,"CC(C)(C)C(=O)N1CCc2sc(C(=O)NO)cc2C1 [Compound 26, 5-(2,2-dimethylpropanoyl)-N-hydroxy-4,5,6,7-tetrahydrothieno[3,2-c]pyridine-2-carboxamide]"
27,< 0.05,"Cn1cccc1C(=O)N1CCc2sc(C(=O)NO)cc2C1 [Compound 27, N-hydroxy-5-[(1-methyl-1H-pyrrol-2-yl)carbonyl]-4,5,6,7-tetrahydrothieno[3,2-c]pyridine-2-carboxamide]"
28,< 0.05,"CC1(C(=O)N2CCc3sc(C(=O)NO)cc3C2)CCCCC1 [Compound 28, N-hydroxy-5-(1-methylcyclohexanecarbonyl)-4,5,6,7-tetrahydrothieno[3,2-c]pyridine-2-carboxamide]"
29,0.05 to 0.1,"Cc1cnc(C(=O)N2CCc3sc(C(=O)NO)cc3C2)cn1 [Compound 29, N-hydroxy-5-(5-methylpyrazine-2-carbonyl)-4,5,6,7-tetrahydrothieno[3,2-c]pyridine-2-carboxamide]"
